Measurements as given in ChEMBL document CHEMBL1201862, “PubChem BioAssay data set” (2004).
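Five concentrations, 48 hours, 96-well plates. At the GI50, growth is halved.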 Calls of active or inactive are those of the source. Rule as the data show it: active = GI50 up to about 1.1 µM and inactive = higher.

Assays:
Experiment in all cases: growth of human tumour cells (NCI), 48 h
[1] = system: SK-MEL-28
[2] = system: SK-OV-3
[3] = system: PC-3
[4] = system: M14
[5] = system: SNB-75
[6] = system: RPMI-8226
[7] = system: LOX IMVI
[8] = system: DU-145
[9] = system: T47D
[10] = system: K562
[11] = system: HCC 2998
[12] = system: A549
[13] = system: SF-295
[14] = system: CAKI-1
[15] = system: UO-31
[16] = system: NCI-H23
[17] = system: RXF 393
[18] = system: NCI-H460
[19] = system: Hs-578T
[20] = system: HOP-92

Compound | GI50 [1] | GI50 [2] | GI50 [3] | GI50 [4] | GI50 [5] | GI50 [6] | GI50 [7] | GI50 [8] | GI50 [9] | GI50 [10] | GI50 [11] | GI50 [12] | GI50 [13] | GI50 [14] | GI50 [15] | GI50 [16] | GI50 [17] | GI50 [18] | GI50 [19] | GI50 [20]
CC(=O)OCC12C(OC(C)=O)C[C@@H](C)C3(CC(c4ccoc4)OC3=O)C1CCC(OC(C)=O)C21CO1 (stereo not given in full) | > 100 µM (inactive) | > 100 µM (inactive) | > 100 µM (inactive) | > 100 µM (inactive) | > 100 µM (inactive) | > 100 µM (inactive) | > 100 µM (inactive) | > 100 µM (inactive) | > 100 µM (inactive) | > 100 µM (inactive) | > 100 µM (inactive) | > 100 µM (inactive) | > 100 µM (inactive) | > 100 µM (inactive) | > 100 µM (inactive) | > 100 µM (inactive) | > 100 µM (inactive) | > 100 µM (inactive) | > 100 µM (inactive) | > 100 µM (inactive)
CCCN(CCCCN1C(=O)c2ccccc2C1=O)CC1COc2ccccc2O1 (stereo not given) | 88.5 µM (inactive) | > 100 µM (inactive) | 51.9 µM (inactive) | > 100 µM (inactive) | > 100 µM (inactive) | 26.4 µM (inactive) | > 100 µM (inactive) | > 100 µM (inactive) | 42.9 µM (inactive) | 42.1 µM (inactive) | 83.2 µM (inactive) | > 100 µM (inactive) | > 100 µM (inactive) | > 100 µM (inactive) | 51.9 µM (inactive) | 55.3 µM (inactive) | 94.4 µM (inactive) | 53.5 µM (inactive) | > 100 µM (inactive) | 29.4 µM (inactive)
COc1ccc(C2C3=C(COC3=O)Oc3cc4c(cc32)OCO4)cc1OC (stereo not given) | 1.16 µM (inactive) | 0.75 µM (active) | 0.521 µM (active) | 1.52 µM (inactive) | 1.82 µM (inactive) | 0.447 µM (active) | 0.65 µM (active) | 1.81 µM (inactive) | 10.1 µM (inactive) | 0.337 µM (active) | 0.614 µM (active) | 1.27 µM (inactive) | 0.716 µM (active) | 2.82 µM (inactive) | 3.73 µM (inactive) | 3.94 µM (inactive) | 0.891 µM (active) | 0.547 µM (active) | 0.408 µM (active) | 39.4 µM (inactive)
Oc1ccc(/N=N/c2ccc(Cl)cc2)cc1 | 23 µM (inactive) | 21.9 µM (inactive) | 14.9 µM (inactive) | 10.7 µM (inactive) | 18.9 µM (inactive) | 24.2 µM (inactive) | 11.9 µM (inactive) | 16.4 µM (inactive) | 15 µM (inactive) | 19.6 µM (inactive) | 15.7 µM (inactive) | 14.2 µM (inactive) | 16.4 µM (inactive) | 14.4 µM (inactive) | 13.7 µM (inactive) | 16.4 µM (inactive) | 15.4 µM (inactive) | 16.9 µM (inactive) | 28.8 µM (inactive) | 12.7 µM (inactive)
